Assay results: patent publication US12054747B2, “Method of differentiating primordial germ cell into primordial follicle in vitro” (KYUSHU UNIVERSITY, NATIONAL UNIVERSITY CORPORATION, priority 2018, dated 2024)

Assays:
[1] = test system: oocytes in gonad of a 12.5 day-old fetus after fertilization; test: In vitro culture of gonad in presence of PI3K inhibitor; oocyte size counted by Stella-CFP fluorescence; format: cell-based, mouse; details: 25 μM Ly from 6th to 16th day of culture; observed on 16th day; FIG. 6B
Procedure: First, a Transwell-COL membrane (3.0 μm pore size, 24 mm diameter) (manufactured by Corning Inc.) was set in each well of a 6-well plate, and the gonad collected in (1) were placed on a membrane. Then, 1.3 mL of medium was added to each well and culture was performed for 16 days. Also, the medium was cultured in αM2 for 4 days and then cultured in S10. In addition, the PI3K inhibitor LY294002 (hereinafter, may be abbreviated as “Ly”) (manufactured by Cell Signaling Technology, model number: 9901) was added to the medium such that a final concentration is 25 μM, during the period from the 6th day to the 16th day from the start of the culture. In addition, ICI 182,780 (7α,17β-[9-[(4,4,5,5,5-pentafluoropentyl)sulfinyl]nonyl]estra-1,3,5(10)-triene-3,17-diol) (manufactured by Tocris Bioscience) which is an estrogen receptor antagonist was added during the period from 5th to 9th day after the start of culture such that a final concentration in the medium is 500 nM. About half of the medium was replaced with a new medium every other day. In addition, as a control, those cultured in the same manner without adding Ly (cultured under a steady condition) were also prepared. The gonad on the 16th day from the start of culture were observed under a fluorescent stereomicroscope (manufactured by Olympus Corporation, model number: SZX16). In FIG. 6A, “Control” is a gonad cultured under a steady condition (in the absence of Ly), and “Ly” is a gonad cultured in the presence of the PI3K inhibitor LY294002. A scale bar represents 50 μm. Further, FIG. 6B is a graph in which the number of oocytes was counted using the expression of Stella-CFP as an index in FIG. 6A, and proportions of the oocytes smaller than 20 μm, 20 μm or larger and 50 μm or smaller, and larger than 50 μm were calculated.

[2] = test system: transcription factor Foxo3a localization in oocytes; test: In vitro culture of gonad in presence of PI3K inhibitor with or without pressurization; Foxo3a immunostaining; format: cell-based, mouse; details: 25 μM Ly, oocytes of 20 μm or smaller, 16th day; for proportion of oocytes in which Foxo3a was localized in the nucleus: FIG. 8A; for proportion of oocytes in which Foxo3a was localized in the cytosol: FIG. 8B
Procedure: Specifically, first, a Transwell-COL membrane (3.0 μm pore size, 24 mm diameter) (manufactured by Corning Inc.) was set in each well of a 6-well plate, and the gonad collected in (1) were placed on a membrane. Then, 1.3 mL of medium was added to each well and culture was performed for 16 days. For artificial pressurization, AGP-3001S (registered trademark) manufactured by STREX was used to apply a hydrostatic pressure of 33.33 kPa, during the period from the 6th day to the 16th day from the start of the culture. In addition, Ly was added to the medium such that a final concentration is 25 μM, during the period from the 6th day to the 16th day from the start of the culture. Also, the medium was cultured in αM2 for 4 days and then cultured in S10. In addition, ICI 182,780 (7α,17β-[9-[(4,4,5,5,5-pentafluoropentyl)sulfinyl]nonyl]estra-1,3,5(10)-triene-3,17-diol) (manufactured by Tocris Bioscience) which is an estrogen receptor antagonist was added during the period from 5th to 9th day after the start of culture such that a final concentration in the medium is 500 nM. About half of the medium was replaced with anew medium every other day. As a control, those cultured in the same manner in the presence of Ly without pressurization were also prepared. In the gonad cultured in (2), a tissue section of the gonad was prepared by using the same method as in (1) of Reference Example 1. Then, the tissue section of the gonad obtained in (3) was immunohistochemically stained using the same method as in (4) of Example 1. […] In FIG. 7, “No Press (0 kPa)” is a gonad cultured in the presence of Ly without pressurization. “Press (33.3 kPa)” is a gonad cultured under the artificially pressurized condition and in the presence of Ly. a and e are staining images for CFP expressed under the control of the expression of the germ cell marker Stella. b and f are immunostaining images using an antibody against a transcription factor Foxo3α. c and g are immunostaining images using an antibody against the MVH of the germ cell marker. d is an image in which a nuclear-staining image using DAPI is superimposed on the staining images in a to c. h is an image in which a nuclear-staining image using DAPI is superimposed on the staining images in e to g. A scale bar represents 10 μm. Further, FIG. 8A is a graph obtained by calculating a proportion of oocytes in which the transcription factor Foxo3a is localized in the nucleus, from the immunostaining image using the antibody against the transcription factor Foxo3a in FIG. 7. FIG. 8B is a graph obtained by calculating a proportion of oocytes in which the transcription factor Foxo3a is localized in a cytosol, from the immunostaining image using the antibody against the transcription factor Foxo3a in FIG. 7.

[3] = artificially pressurized condition (33.33 kPa)

SMILES: O=c1cc(N2CCOCC2)oc2c(-c3ccccc3)cccc12 [Ly, LY294002]
- proportion of oocytes having a size larger than 50 μm [1]: about 23%
- proportion of oocytes having a size smaller than 20 μm in total oocytes [1]: about 29%
- proportion of oocytes with a size of 20 μm or larger and 50 μm or smaller [1]: about 48%
- proportion of oocytes in which Foxo3a was localized in the nucleus [2, 3]: about 82%
- proportion of oocytes in which Foxo3a was localized in the cytosol [2, 3]: about 18%
- proportion of oocytes in which Foxo3a was localized in the nucleus ([2]; without pressurization (0 kPa)): about 52%
- proportion of oocytes in which Foxo3a was localized in the cytosol ([2]; without pressurization (0 kPa)): about 48%
